“And” between values parts separate entries of the source, which are not always exact repeats. Equal entries are not always repeated.
Assays:
L1210 Leukemia = L1210 Leukemia antitumor screening; assay type: in vivo, Female CDF₁ mice; conditions: for %ILS: ILS ≧ 25% represents activity; for Surv: survivors per group of 6 mice at three times the MST of controls
Description: (§1) Each of the compounds was evaluated in the Sarcoma 180 Ascites screen and at least some of the compounds were also evaluated in the L1210 Leukemia tumor models.
(§2) L1210 screening was conducted according to a published method. […] Female CDF₁ mice (16 - 22 g) were implanted with 1 x 10⁶ tumor cells ip on day zero. Compounds were administered in 0.5 mL water ip on day one. Groups of 6 mice were used for each dose. A control group of mice received only tumor and 0.5 mL water. A positive control group received tumor and 8 mg/kg cisplatin in 0.5 mL 0.15 M NaCl. The test was terminated after three times the mean survival time (MST) of the control group, surviving mice were counted as dying on that day. Activity was determined based on the percent increase in MST of test mice over controls (%ILS). […] The tumor line was maintained through weekly transfer of 5 x 10⁴ cells in DBA/2 mice.

Sarcoma 180 Ascites = Sarcoma 180 Ascites (S180a) antitumor screening; assay type: in vivo, Female CFW mice; conditions: for %ILS: ILS ≧ 50% indicates activity; for Surv: survivors per group of 6 mice at twice the MST of controls
Description: as §1, §2
Female CFW mice (18 - 25 g) were implanted with 2 x 10⁶ cells ip on day zero. Compounds were administered in 0.5 mL water ip on day one. Groups of 6 mice were used for each test dose as well as controls as defined above. The test was run for twice the MST of the control group, with survivors counted as dying on that day. An ILS of ≧ 50% indicates activity. The tumor line was maintained through weekly transfer of 4 x 10⁶ cells in CFW mice.

[1] = Dose 10 mg/kg ip in water on day one
[2] = Dose 20 mg/kg ip in water on day one
[3] = Dose 40 mg/kg ip in water on day one
[4] = Dose 80 mg/kg ip in water on day one
[5] = Dose 160 mg/kg ip in water on day one
[6] = Dose 320 mg/kg ip in water on day one
[7] = 8 mg/kg cisplatin in 0.5 mL 0.15 M NaCl, survivors per 6 mice, one value per experiment

Compound: cis-[Pt(NH₃)₂(2′-deoxycytidine)Cl]NO₃
- %ILS (L1210 Leukemia; [1]): 12%
- Surv (L1210 Leukemia; Dose 10 mg/kg ip): 0/6
- %ILS (L1210 Leukemia; [2]): 23%
- Surv (L1210 Leukemia; Dose 20 mg/kg ip): 0/6
- %ILS (L1210 Leukemia; [3]): 26%
- Surv (L1210 Leukemia; Dose 40 mg/kg ip): 0/6
- %ILS (L1210 Leukemia; [4]): 44%
- Surv (L1210 Leukemia; Dose 80 mg/kg ip): 0/6
- %ILS (L1210 Leukemia; [5]): 41%
- Surv (L1210 Leukemia; Dose 160 mg/kg ip): 0/6
- %ILS (L1210 Leukemia; [6]): 59%
- Surv (L1210 Leukemia; Dose 320 mg/kg ip): 0/6

Compound: N.N.Nc1ccn(C2CC(O)C(CO)O2)c(=O)n1.[Cl-].[Cl-].[Pt+2] (stereo not drawn) [cis-[Pt(NH₃)₂(2′-deoxycytidine)Cl]Cl]
- %ILS (Sarcoma 180 Ascites; [1]): 10%
- Surv (Sarcoma 180 Ascites; Dose 10 mg/kg ip): 0/6
- %ILS (Sarcoma 180 Ascites; [2]): 34%
- Surv (Sarcoma 180 Ascites; Dose 20 mg/kg ip): 0/6
- %ILS (Sarcoma 180 Ascites; [3]): 61%
- Surv (Sarcoma 180 Ascites; Dose 40 mg/kg ip): 2/6
- %ILS (Sarcoma 180 Ascites; [4]): 85%
- Surv (Sarcoma 180 Ascites; Dose 80 mg/kg ip): 3/6
- %ILS (Sarcoma 180 Ascites; [5]): 76%
- Surv (Sarcoma 180 Ascites; Dose 160 mg/kg ip): 4/6
- %ILS (Sarcoma 180 Ascites; [6]): 51%
- Surv (Sarcoma 180 Ascites; Dose 320 mg/kg ip): 1/6

Compound: Nc1ccn(C2OC(CO)C(O)C2O)c(=O)[n+]1[Pt]([NH2])([NH2])[Cl].O=[N+]([O-])[O-] (stereo not drawn) [cis-[Pt(NH₃)₂(cytidine)Cl]NO₃]
- %ILS (Sarcoma 180 Ascites; [1]): 6%
- Surv (Sarcoma 180 Ascites; Dose 10 mg/kg ip): 0/6
- %ILS (Sarcoma 180 Ascites; [2]): 1%
- Surv (Sarcoma 180 Ascites; Dose 20 mg/kg ip): 0/6
- %ILS (Sarcoma 180 Ascites; [3]): -4%
- Surv (Sarcoma 180 Ascites; Dose 40 mg/kg ip): 0/6
- %ILS (Sarcoma 180 Ascites; [4]): -7%
- Surv (Sarcoma 180 Ascites; Dose 80 mg/kg ip): 0/6
- %ILS (Sarcoma 180 Ascites; [5]): 8%
- Surv (Sarcoma 180 Ascites; Dose 160 mg/kg ip): 0/6
- %ILS (Sarcoma 180 Ascites; [6]): 30%
- Surv (Sarcoma 180 Ascites; Dose 320 mg/kg ip): 0/6

Compound: N.N.Nc1ccn(C2OC(CO)C(O)C2O)c(=O)n1.O=[N+]([O-])[O-].[Cl-].[Pt+2] [cis-[Pt(NH₃)₂(1-β-D-arabinofuranosylcytosine)Cl]NO₃]
- %ILS (L1210 Leukemia; [1]): -22%
- Surv (L1210 Leukemia; Dose 10 mg/kg ip): 0/6
- %ILS (L1210 Leukemia; [2]): -8%
- Surv (L1210 Leukemia; Dose 20 mg/kg ip): 0/6
- %ILS (L1210 Leukemia; [3]): 0%
- Surv (L1210 Leukemia; Dose 40 mg/kg ip): 0/6
- %ILS (L1210 Leukemia; [4]): 6%
- Surv (L1210 Leukemia; Dose 80 mg/kg ip): 0/6
- %ILS (L1210 Leukemia; [5]): 10%
- Surv (L1210 Leukemia; Dose 160 mg/kg ip): 0/6
- %ILS (L1210 Leukemia; [6]): 10%
- Surv (L1210 Leukemia; Dose 320 mg/kg ip): 0/6
- %ILS (Sarcoma 180 Ascites; [1]): -12%
- Surv (Sarcoma 180 Ascites; Dose 10 mg/kg ip): 0/6
- %ILS (Sarcoma 180 Ascites; [2]): -3%
- Surv (Sarcoma 180 Ascites; Dose 20 mg/kg ip): 0/6
- %ILS (Sarcoma 180 Ascites; [3]): 2%
- Surv (Sarcoma 180 Ascites; Dose 40 mg/kg ip): 0/6
- %ILS (Sarcoma 180 Ascites; [4]): 42%
- Surv (Sarcoma 180 Ascites; Dose 80 mg/kg ip): 2/6
- %ILS (Sarcoma 180 Ascites; [5]): 51%
- Surv (Sarcoma 180 Ascites; Dose 160 mg/kg ip): 1/6
- %ILS (Sarcoma 180 Ascites; [6]): 45%
- Surv (Sarcoma 180 Ascites; Dose 320 mg/kg ip): 2/6

Compound: cis-[Pt(NH₃)₂(2′-deoxyguanosine)Cl]Cl
- %ILS (Sarcoma 180 Ascites; [1]): 2%
- Surv (Sarcoma 180 Ascites; Dose 10 mg/kg ip): 0/6
- %ILS (Sarcoma 180 Ascites; [2]): 15%
- Surv (Sarcoma 180 Ascites; Dose 20 mg/kg ip): 1/6
- %ILS (Sarcoma 180 Ascites; [3]): 76%
- Surv (Sarcoma 180 Ascites; Dose 40 mg/kg ip): 4/6
- %ILS (Sarcoma 180 Ascites; [4]): 88%
- Surv (Sarcoma 180 Ascites; Dose 80 mg/kg ip): 4/6
- %ILS (Sarcoma 180 Ascites; [5]): 85%
- Surv (Sarcoma 180 Ascites; Dose 160 mg/kg ip): 4/6
- %ILS (Sarcoma 180 Ascites; [6]): 6%
- Surv (Sarcoma 180 Ascites; Dose 320 mg/kg ip): 2/6

Compound: cis-[Pt(NH₃)₂Cl₂] [Positive Control, reference compound]
- Positive Control Surv (L1210 Leukemia; [7]): 0/6
- Positive Control %ILS (Sarcoma 180 Ascites; 8 mg/kg cisplatin in 0.5 mL 0.15 M NaCl, one value per experiment, run with the compound of that table section): 86% and 54% and 82% and 59%
- Positive Control Surv (Sarcoma 180 Ascites; [7]): 4/6 and 0/6 and 3/6

Compound: Nc1nc2c(c(=O)[nH]1)[n+]([Pt]([NH2])([NH2])[Cl])cn2C1OC(CO)C(O)C1O.O=[N+]([O-])[O-] (stereo not drawn) [cis-[Pt(NH₃)₂(guanosine)Cl]NO₃]
- %ILS (L1210 Leukemia; [1]): -24%
- Surv (L1210 Leukemia; Dose 10 mg/kg ip): 0/6
- %ILS (L1210 Leukemia; [2]): -4%
- Surv (L1210 Leukemia; Dose 20 mg/kg ip): 0/6
- %ILS (L1210 Leukemia; [3]): -4%
- Surv (L1210 Leukemia; Dose 40 mg/kg ip): 0/6
- %ILS (L1210 Leukemia; [4]): 2%
- Surv (L1210 Leukemia; Dose 80 mg/kg ip): 0/6
- %ILS (L1210 Leukemia; [5]): 8%
- Surv (L1210 Leukemia; Dose 160 mg/kg ip): 0/6
- %ILS (L1210 Leukemia; [6]): -26%
- Surv (L1210 Leukemia; Dose 320 mg/kg ip): 0/6
- %ILS (Sarcoma 180 Ascites; [1]): 2%
- Surv (Sarcoma 180 Ascites; Dose 10 mg/kg ip): 0/6
- %ILS (Sarcoma 180 Ascites; [2]): 15%
- Surv (Sarcoma 180 Ascites; Dose 20 mg/kg ip): 1/6
- %ILS (Sarcoma 180 Ascites; [3]): 23%
- Surv (Sarcoma 180 Ascites; Dose 40 mg/kg ip): 0/6
- %ILS (Sarcoma 180 Ascites; [4]): 16%
- Surv (Sarcoma 180 Ascites; Dose 80 mg/kg ip): 1/6
- %ILS (Sarcoma 180 Ascites; [5]): 79%
- Surv (Sarcoma 180 Ascites; Dose 160 mg/kg ip): 3/6
- %ILS (Sarcoma 180 Ascites; [6]): -45%
- Surv (Sarcoma 180 Ascites; Dose 320 mg/kg ip): 1/6
